Experimental data taken from ChEMBL document CHEMBL1201862, “PubChem BioAssay data set” (2004).
Active and inactive are the calls of the source.

Tests used:
[1] = molecular target: T1, Corticotropin-releasing factor receptor 2/Corticotropin-releasing factor-binding protein (Homo sapiens, UniProt P24387+Q13324); experiment: activators of CRF receptor 2 with binding protein – uHTS hits, confirmation (AID 602473); assay type: functional; details: read-out: EC50_Mean
T1 sequence (Q13324 whole entry): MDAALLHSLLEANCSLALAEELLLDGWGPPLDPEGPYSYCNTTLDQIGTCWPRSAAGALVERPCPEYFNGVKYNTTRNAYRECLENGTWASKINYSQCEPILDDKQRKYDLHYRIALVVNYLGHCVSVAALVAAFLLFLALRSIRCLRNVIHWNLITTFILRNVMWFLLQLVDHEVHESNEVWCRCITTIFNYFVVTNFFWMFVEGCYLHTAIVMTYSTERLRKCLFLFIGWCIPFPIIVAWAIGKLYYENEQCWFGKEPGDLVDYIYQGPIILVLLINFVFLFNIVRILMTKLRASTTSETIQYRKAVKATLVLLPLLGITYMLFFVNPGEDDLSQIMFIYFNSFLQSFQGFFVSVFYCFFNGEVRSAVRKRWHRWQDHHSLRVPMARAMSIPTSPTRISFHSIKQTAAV
T1 sequence (P24387 whole entry): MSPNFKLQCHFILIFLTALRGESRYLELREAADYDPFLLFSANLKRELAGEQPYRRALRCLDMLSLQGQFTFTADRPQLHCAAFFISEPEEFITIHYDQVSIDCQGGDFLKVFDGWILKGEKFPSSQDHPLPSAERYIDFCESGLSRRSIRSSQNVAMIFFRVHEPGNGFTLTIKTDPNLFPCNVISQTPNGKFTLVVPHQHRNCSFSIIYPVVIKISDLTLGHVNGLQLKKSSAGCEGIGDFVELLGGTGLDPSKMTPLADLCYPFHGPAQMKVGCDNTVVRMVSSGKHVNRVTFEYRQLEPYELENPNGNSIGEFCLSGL

[2] = molecular target: T1, Corticotropin-releasing factor receptor 2/Corticotropin-releasing factor-binding protein; experiment: Dose Response confirmation of uHTS hits for small molecule antagonists of the CRF-binding protein and CRF-R2 receptor complex.; assay type: functional; details: read-out: IC50_Mean
[3] = molecular target: FAD-linked sulfhydryl oxidase ALR (Homo sapiens, UniProt P55789); experiment: ALR-catalysed DTT oxidation blockers – biochemical, H2O2 detection, luminescence, cherry-pick, dose response (AID 493248)
[4] = molecular target: T2, Ubiquitin-conjugating enzyme E2 N (Homo sapiens, UniProt P61088); assay type: functional;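 note: Dose-response confirmation in a TR-FRET assay detecting UBC13-driven polyubiquitin chain formation, inhibition measured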
T2 sequence (P61088 whole entry): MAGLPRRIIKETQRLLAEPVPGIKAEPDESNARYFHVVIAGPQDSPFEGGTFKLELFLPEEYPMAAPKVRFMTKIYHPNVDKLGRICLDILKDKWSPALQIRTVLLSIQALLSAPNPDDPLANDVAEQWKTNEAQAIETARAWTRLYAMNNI

cells = assay type: functional
[5] = Trypanosoma cruzi growth suppression in host cells – NIH3T3 host cells, beta-gal luminescence, confirmation (AID 2044); assay type: functional, cell-based;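 note: intracellular parasites grown in NIH/3T3 mouse fibroblasts as host cells; luminescent beta-galactosidase reporter signal from transgenic T. cruzi replicating inside host cells; inhibitors lower the luminescence signal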
[6] = NIH3T3 cell viability loss – ATP luminescence, mouse fibroblasts, counter-screen, dose response (AID 2010); assay type: functional, cell-based;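 note: cells exposed to compound for about 90 hours before reading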
[7] = intracellular Trypanosoma cruzi inhibitors in host cells – cell-based, plate reader, cherry-pick samples, set 3, dose response (AID 651818); assay type: functional;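 note: compounds incubated with infected cells for about four days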
Cytochrome P450 3A4 = Cytochrome P450 3A4 (Homo sapiens, UniProt P08684); details: Potency;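 note: confirmatory qHTS run detecting inhibitors and substrates of CYP3A4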
[8] = P. falciparum Dd2 growth inhibitors, dose response, SYBR Green, cherry-picked samples (AID 1159567); assay type: functional, cell-based
[9] = molecular target: Luciferin 4-monooxygenase (Photinus pyralis, UniProt P08659); experiment: inhibition of purified Photinus pyralis luciferase – biochemical, luminescence, dose response (AID 1891)
[10] = Luminescence Cell-Based Dose Confirmation HTS to Identify Inhibitors of Platelet Dense Granule Release. [Related pubchem assays: 1663 (Primary HTS), 1678 (Summary of Project)]; assay type: functional
[11] = OVCAR-3 cell viability loss – plate reader, dry powder samples, PAX8 inhibitor project, dose response (AID 743044); assay type: functional, cell-based
Paired box protein Pax-8 = Paired box protein Pax-8 (Homo sapiens, UniProt Q06710); experiment: PAX8 transcriptional activity inhibition in RMG-I – RMG-I cells, luciferase, cherry-pick, dose response (AID 687027); assay type: functional, cell-based;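 note: luciferase reporter driven by Pax8 target thyroperoxidase promoter measured by SteadyGlo luminescence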
Chain of Paired box protein Pax-8 (Q06710 whole entry): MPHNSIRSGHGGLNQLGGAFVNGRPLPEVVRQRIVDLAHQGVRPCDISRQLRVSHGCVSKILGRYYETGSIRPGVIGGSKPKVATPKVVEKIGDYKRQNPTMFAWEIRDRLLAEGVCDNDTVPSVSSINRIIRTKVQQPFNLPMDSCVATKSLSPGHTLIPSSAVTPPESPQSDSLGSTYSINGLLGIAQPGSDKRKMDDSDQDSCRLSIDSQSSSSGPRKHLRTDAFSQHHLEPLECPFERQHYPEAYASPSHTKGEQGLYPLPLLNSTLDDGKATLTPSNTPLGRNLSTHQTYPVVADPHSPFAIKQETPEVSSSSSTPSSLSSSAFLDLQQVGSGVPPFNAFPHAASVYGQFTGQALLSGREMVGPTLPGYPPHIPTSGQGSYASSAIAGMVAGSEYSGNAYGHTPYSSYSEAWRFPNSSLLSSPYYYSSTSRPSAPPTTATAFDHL

Chain of Luciferin 4-monooxygenase (P08659 whole entry): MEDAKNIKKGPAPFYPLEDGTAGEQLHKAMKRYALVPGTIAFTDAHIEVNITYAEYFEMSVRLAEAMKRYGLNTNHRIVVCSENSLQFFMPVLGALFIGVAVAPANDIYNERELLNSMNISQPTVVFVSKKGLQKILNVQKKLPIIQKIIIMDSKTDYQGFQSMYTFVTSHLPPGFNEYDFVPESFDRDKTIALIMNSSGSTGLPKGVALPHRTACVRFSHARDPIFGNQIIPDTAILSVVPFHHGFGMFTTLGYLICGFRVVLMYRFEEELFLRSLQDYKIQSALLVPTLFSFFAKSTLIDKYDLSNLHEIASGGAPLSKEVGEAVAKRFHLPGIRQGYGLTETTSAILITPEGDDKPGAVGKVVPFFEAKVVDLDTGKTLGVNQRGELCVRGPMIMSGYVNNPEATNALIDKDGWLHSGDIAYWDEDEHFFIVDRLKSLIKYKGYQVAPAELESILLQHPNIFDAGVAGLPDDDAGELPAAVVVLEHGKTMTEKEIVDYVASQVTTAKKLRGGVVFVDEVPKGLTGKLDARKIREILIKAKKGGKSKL
Chain of FAD-linked sulfhydryl oxidase ALR (P55789 whole entry): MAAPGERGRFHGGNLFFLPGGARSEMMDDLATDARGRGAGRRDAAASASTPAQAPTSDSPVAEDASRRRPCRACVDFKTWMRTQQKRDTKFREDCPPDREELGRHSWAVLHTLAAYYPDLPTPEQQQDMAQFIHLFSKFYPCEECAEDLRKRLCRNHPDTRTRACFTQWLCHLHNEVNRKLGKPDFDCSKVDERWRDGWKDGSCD
Chain of Cytochrome P450 3A4 (P08684 whole entry): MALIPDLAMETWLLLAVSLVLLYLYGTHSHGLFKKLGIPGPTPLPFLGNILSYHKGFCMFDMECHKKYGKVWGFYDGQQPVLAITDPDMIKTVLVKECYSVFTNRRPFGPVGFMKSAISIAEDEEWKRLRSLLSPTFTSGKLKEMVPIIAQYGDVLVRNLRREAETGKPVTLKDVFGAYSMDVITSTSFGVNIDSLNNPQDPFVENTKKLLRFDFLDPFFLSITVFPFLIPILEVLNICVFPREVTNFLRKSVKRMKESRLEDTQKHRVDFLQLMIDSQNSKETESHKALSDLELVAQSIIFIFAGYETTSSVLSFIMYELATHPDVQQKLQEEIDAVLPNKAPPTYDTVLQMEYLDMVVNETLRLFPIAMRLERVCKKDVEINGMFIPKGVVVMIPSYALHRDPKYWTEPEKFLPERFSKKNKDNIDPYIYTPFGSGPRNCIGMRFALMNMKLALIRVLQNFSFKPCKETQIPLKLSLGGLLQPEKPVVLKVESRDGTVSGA

Cc1nn(-c2cccc([N+](=O)[O-])c2)c(N)c1-c1ccccc1
EC50 [1]: > 53 µM (inactive)
IC50 [2]: > 47.1 µM (inactive)

COc1ccc(N2CCN(c3ccc(C(=O)O)cc3[N+](=O)[O-])CC2)cc1
AC50 [3]: 5.03 µM (active)

Cc1ccc(C(=O)NCCN2C3=NC[C@H](Cc4ccc(O)cc4)N3C[C@H]2Cc2ccc(O)cc2)cc1Br
IC50 [4]: > 20 µM (inactive)

c1ccc2cc(OCCCn3ccnc3)ccc2c1
IC50 (cells): 42.5 µM (active)
EC50 [5]: 1.01 µM (active)
EC50 [6]: > 60 µM (not active)

CSc1ccccc1OCc1cc(C(=O)NCc2csc(C(C)C)n2)no1
EC50 [1]: > 53 µM (inactive)
IC50 [2]: > 47.1 µM (inactive)

O=C(O)C(c1ccccc1)C1(O)CCCC1 (stereo not given)
EC50 [1]: > 53 µM (inactive)
IC50 [2]: > 47.1 µM (inactive)

COc1ccc(S(=O)(=O)Nc2ccc3c(c2)CC(=O)N([C@H](C)CO)C[C@@H](C)[C@@H](CN(C)Cc2ccc(Cl)c(Cl)c2)O3)cc1
AC50 [7]: 3.78 µM (active)

COC(=O)[C@@H]1C[C@@]2(O)[C@H](O)[C@H](O)[C@H](O)C[C@H]2N1CC(c1ccccc1)c1ccccc1
AC50 (Cytochrome P450 3A4): 20 µM (inconclusive)

COc1ccccc1S(=O)(=O)N(C)C[C@@H]1Oc2cc(C#CCC(C)C)ccc2S(=O)(=O)N([C@@H](C)CO)C[C@@H]1C
AC50 [8]: 3.17 µM (active)

COC(=O)c1cc(-c2cccs2)nc2ccccc12
IC50 [4]: > 20 µM (inactive)

COc1cccc(CNC(=O)c2cc(S(=O)(=O)N3CCCC3)cn2C)c1
EC50 [9]: > 112 µM (not active)
EC50 [10]: > 112 µM (not active)

C#CCOCCOCCOCCNc1nc(N2CCN(C(=O)[C@H](CCCCN)n3cc([C@@H](N)[C@H](C)CC)nn3)CC2)nc(N2CCN(C(=O)[C@H](CCC(=O)O)n3cc([C@@H](N)CCCCN)nn3)CC2)n1
IC50 [4]: > 20 µM (inactive)

CCC(C)NC(=O)CSc1nc2ccccc2c(=O)n1CCCC(=O)NCC1CCCO1 (stereo not given)
EC50 [1]: > 53 µM (inactive)
IC50 [2]: > 47.1 µM (inactive)

CCCCN(C)CCCNC(=O)c1cc(-c2cccs2)nc2ccccc12
IC50 [4]: > 20 µM (inactive)
EC50 [5]: 0.183 µM (active)
EC50 [6]: > 60 µM (not active)

Cc1nnc(NC(=O)c2ccc3ccccc3c2)o1
IC50 (cells): 1.64 µM (active)

Cc1nc2sc(C(c3ccccc3)N3CCN(c4ccccc4F)CC3)c(O)n2n1 (stereo not given)
EC50 [9]: > 112 µM (not active)
EC50 [10]: > 112 µM (not active)

CN1CCN(S(=O)(=O)c2cccc([N+](=O)[O-])c2)CC1
EC50 [9]: > 112 µM (not active)
EC50 [10]: > 112 µM (not active)

CC(C)OC(=O)c1cc(C(=O)c2cc(Cl)ccc2O)coc1=N
IC50 (cells): 23.2 µM (active)

CC1=CC2=NC(=O)/C(=C\c3ccc(OC(=O)c4ccco4)cc3)C(=N)N2O1
IC50 (cells): 21.8 µM (active)

COC(=O)c1c(C(=O)OC)c(-c2ccc(F)cc2)n2c1CSC2
AC50 [3]: 0.218 µM (active)

C[C@@H]1CCCCO[C@H](CN(C)Cc2ccncc2)[C@H](C)CN([C@H](C)CO)C(=O)c2cc(NC(=O)Nc3ccc(C(F)(F)F)cc3)ccc2O1
AC50 [11]: 35.4 µM (active)
AC50 (Paired box protein Pax-8): 7.43 µM (active)

CCN(CC(=O)Nc1ccccc1C(F)(F)F)C(=O)CCc1c(C)nc(O)c(C#N)c1C
EC50 [9]: > 112 µM (not active)
EC50 [10]: 2.71 µM (active)

CCOc1ccc(CCNC(=O)C2CCCN(c3ncnc4c3nc3n4CCCCC3)C2)cc1 (stereo not given)
EC50 [1]: > 53 µM (inactive)
IC50 [2]: > 47.1 µM (inactive)

Cc1ccccc1C(=O)NN1CC(C(=O)OCc2ccc(Cl)c(Cl)c2)CC1=O (stereo not given)
IC50 (cells): 22.2 µM (active)

COc1cc(CN2CCNC(=O)C2CC(=O)NCCCN2CCOCC2)cc(OC)c1 (stereo not given)
EC50 [9]: > 112 µM (not active)
EC50 [10]: > 112 µM (not active)
